The structures appear in SMILES notation. “Also recorded” adds a separate entry of the source.

The results in this text go back to US20240261474A1, “BIODEGRADABLE TISSUE SCAFFOLD WITH SECONDARY MATRIX TO HOST WEAKLY ADHERENT CELLS” (THE U.S.A., as represented by the Secretary, Department of …, priority 2021, published 2024).

Type in all cases: cell-based, human
For data set [1], the system named is iPSC-RPE. The experiment in a line: Transmission electron microscopy, fine intracellular structures. As to conditions: TEM, AGN 193109 0.2 μM, endo-IWR-1 4 uM. On the procedure:
Finally, transmission electron microscopy (TEM) was used to detect fine morphological alterations, whereas scanning electron microscopy (SEM) was essential to study modifications in apical processes structures. […] In DMSO-treated iPSC-RPE we found both types of apical processes, petal and finger-like.
(§1) AGN 193109 was used at 0.2 μM and endo-IWR-1 at 4 uM. Both drugs were dissolved in DMSO, so that the final concentration of DMSO was not more than 0.1%. The final concentration of DMSO control was 0.1%. The compounds were added in RPE maturation medium until cells were mature. Gross cell morphology was also analyzed (FIGS. 20B, 20D, and 20F, left image) to detect possible abnormalities. Fine intracellular structures were examined for alterations with transmission electron microscopy (TEM, FIGS. 20B, 20D, and 20F, right image).

In data set [2] the test system is iPSC-RPE. The experiment in a line: Hematoxylin and eosin staining, gross morphology of the monolayer. The settings on record: H&E, AGN 193109 0.2 μM, endo-IWR-1 4 uM. How it is done:
(§2) Brightfield imaging was used to determine RPE pigmentation defects, while hematoxylin and eosin (H&E) staining was valuable to inspect gross morphologic alterations of the monolayer. A section of transwell membrane was cut and mounted on a glass slide for brightfield imaging. Pigmentation levels were preserved after ENDO-1-IWR and AGN 193109 treatments as compared to DMSO-treated iPSC-RPE.
as §1

Data set [3] has as its system iPSC-RPE. The data set is described as follows: Single-cell RNA sequencing. As to conditions: AGN 193109-, endo-IWR-1- and DMSO-treated cells. How it is done: Single-cell RNA sequencing was performed to confirm that the compounds changed cell transcriptome.
The subject of data set [4] is iPSC-RPE. The data set is described as follows: High-content compound screening on iPSC-RPE, cell area quantified with REShAPE. The settings on record: 384-well plates, 30 days in RPE maturation medium. How it is done: Screening of Compound Library and Imaging: 115 drugs targeting various developmental pathways or cytoskeletal stressors were selected to form a new developmental library of compounds. The drugs are either activators or inhibitors of various signaling pathways and target proteins at different levels of the signaling cascades. For each drug, an initial concentration was selected, and adjustments made to the concentration of each drug. The assays were performed on iPSC-derived committed RPE. For every drug, the concentration was lowered if toxicity was detected or increased if there was no evident effect on cell morphology in comparison to control. The list of compounds tested can be found in Table 1. The high-content screening was performed in 384-well plates (cat #6057300, Perkin Elmer) using a range of 3 different concentrations (3×, 1×, 0.3×). […]
Morphometric Analysis Using REShAPE: The binary segmentation produced by the CNN algorithm was transferred to REShAPE for cell shape analysis. […] For every cell in a field of view that has been successfully segmented, REShAPE provide quantification of more than 25 different shape metrics. […] In addition, the software created images of segmented cells for every metric analyzed, where every cell is color-coded according to the raw values (FIG. 4). The color-coded images display the location of the cells analyzed. […]

For data set [5], the system named is iPSC-RPE. The data set is described as follows: Brightfield imaging of RPE pigmentation. As to conditions: compared to DMSO-treated iPSC-RPE, AGN 193109 0.2 μM, endo-IWR-1 4 uM. On the procedure:
as §2, §1

Data set [6] deals with iPSC-RPE. The data set is described as follows: Phenotypic characterization of selected drug treatments (TER, brightfield, H&E, TEM, SEM). The settings on record: for induced RPE phenotype: cell size and apical processes; for effect on iPSC-RPE health: verified by TER, brightfield, H&E and TEM. An excerpt:
Eleven compounds were selected for further phenotypic characterization based on their initial effect in RPE cell size. […] Because the macula is dominated by cones while the periphery is dominated by rods, RPE cells in these two different regions might be enriched in one of the two apical process structures. It was hypothesized that the phenotype of RPE apical processes will serve as an additional discriminatory factor, other than RPE morphometry.
Different techniques were used to study RPE morphologic features.
Starting at D21, iPSC-RPE were treated with the different compounds. At D40 immature RPE were enriched by negative selection, as per differentiation protocol, and seeded on transwells for maturation. iPSC-RPE were treated with the compounds for other 6 weeks until cells were fully mature (FIG. 1 and FIG. 11).

With `Cc1ccc(C2=CCC(C)(C)c3ccc(C#Cc4ccc(C(=O)O)cc4)cc32)cc1` [AGN 193109, 4-[2-[5,6-Dihydro-5,5-dimethyl-8-(4-methylphenyl)-2-naphthalenyl]ethynyl]-benzoic acid], the fine intracellular structures result in data set [1] is on record as “no fine intracellular structure defects were identified; also recorded: nor did they affect gross or fine cell morphology”. Also, the gross cell morphology result in data set [2] is listed as “no gross morphological alterations were detected; also recorded: nor did they affect gross or fine cell morphology”. The “single cell transcriptome clustering” value in data set [3] was “cluster separately from each other”. In addition, in data set [4], the “effect on iPSC-RPE cell area / cell size distribution in the screening” value was “reproduces macular and peripheral cell sizes in vitro, respectively”. For the same compound, the pigmentation levels result in data set [5] is “preserved; also recorded: did not alter pigmentation levels”. Further, in data set [6], the “induced RPE phenotype” value was “induces a macular RPE phenotype” and the “effect on iPSC-RPE health” value was “not disruptive of iPSC-RPE health; also recorded: did not affect the healthy RPE phenotype”.
As to `O=C(Nc1cccc2cccnc12)c1ccc(N2C(=O)C3C4C=CC(C4)C3C2=O)cc1` (stereo not drawn) [ENDO-1-IWR, 4-(1,3,3a,4,7,7a-Hexahydro-1,3-dioxo-4,7-methano-2H-isoindol-2-yl)-N-8-quinolinyl-Benzamide], the fine intracellular structures result is “no fine intracellular structure defects were identified” in data set [1] and “nor did they affect gross or fine cell morphology” in data set [1] (listed as endo-IWR-1). Besides, the figures for the gross cell morphology entry in data set [2] and in data set [2] (listed as endo-IWR-1) were “no gross morphological alterations were detected” and “nor did they affect gross or fine cell morphology”, respectively. Also, in data set [3], the “single cell transcriptome clustering” value was “cluster separately from each other”. Besides, the “effect on iPSC-RPE cell area / cell size distribution in the screening” value in data set [4] was “reproduces macular and peripheral cell sizes in vitro, respectively”. The figures for the pigmentation levels entry in data set [5], in data set [5] (listed as Endo-IWR-1) and in data set [5] (listed as endo-IWR-1) were “preserved”, “did not alter pigmentation levels” and “did not alter pigmentation levels”, respectively. Further, the “induced RPE phenotype” value in data set [6] is “induces a peripheral RPE phenotype”. Besides, the “effect on iPSC-RPE health” value in data set [6] is given as “not disruptive of iPSC-RPE health; also recorded: did not affect the healthy RPE phenotype”.
